Assay results published in patent US20190231771A1, “METHODS FOR TREATMENT AND PREVENTION OF OPIOID INDUCED CONSTIPATION USING ORAL COMPOSITIONS OF METHYLNALTREXONE” (Salix Pharmaceuticals, Ltd., priority 2011, published 2019).
“And” between values parts separate entries of the source, which are not always exact repeats. Equal values may be shown once. Read-outs that look alike come from different tables or passages of the source.

Test: Comparative bioavailability: single oral 150, 300, 450 mg MNTX tablets vs 12 mg SC injection, crossover
Type: in vivo, human
Settings: for t1/2 / half-life: harmonic mean; for bioavailability: arithmetic mean AUC0-∞, read-out: dose-normalized bioavailability of oral MNTX relative to SC MNTX
Text: The oral dosage levels and formulation of MNTX evaluated here were the same as those in a phase 3 study of oral MNTX tablets, with the exception of a nonfunctional coating on the MNTX tablets. […] The pharmacokinetics of the uncoated tablet used in the phase 3 study and the coated tablets used in the current study were compared in a separate study. […] A single-dose pharmacokinetic profile of oral MNTX tablets was also planned for evaluation in this study.
Presented herein is a randomized, open-label, crossover study consisting of 6 dosing sequences, each with 2 dosing periods; the dosing periods were separated by 7 days. All subjects were housed in the clinical research unit from Day −1 through Day 14 and were discharged on Day 15, which concluded their participation in the study. Prior to receiving study drug on Days 1 and 8, the subjects underwent an overnight fast of at least 10 hours, beginning on Days 0 and 7, respectively. In both dosing periods, the subjects received a single oral dose of MNTX tablets (150, 300, or 450 mg) or a single SC injection of MNTX (12 mg). The dosing was conducted in a crossover fashion (e.g., a tablet was administered at one visit and a SC injection was administered at the alternate visit). The strength of oral methylnaltrexone dose (150 mg, 300 mg, or 450 mg) and the dosing sequence (Day 1: oral tablet; Day 8: SC injection vs the alternate dosing order) for each subject were determined by random assignment. Each oral dose was administered with 240 mL of room temperature drinking water. The subjects were instructed to drink all of the water and were told to swallow the tablets whole (e.g., not to chew, divide, or crush them). Blood samples were collected for pharmacokinetic analyses prior to dosing (approximately 1 hour prior) on Day 1, and at 0.25, 0.5, 1, 2, 4, 6, 8, 10, 12, 16, 24, 36, 48, 72, 96, 120, 144, and 168 hours after dosing on Days 1 and 8.
Each tablet contained 150 mg of the active pharmaceutical ingredient, MNTX.
Each injection vial contained 12 mg of the active pharmaceutical ingredient, MNTX, per 0.6 mL of solution (i.e., 20 mg/mL solution).
In this study, all 48 enrolled subjects received study drug in each of the 2 study periods and were included in the safety and pharmacokinetic analyses.
This was a phase 1, randomized, open-label, crossover study consisting of 6 dosing sequences, each with 2 dosing periods. In both dosing periods, the subjects received a single oral dose of MNTX tablets (150, 300, or 450 mg) or a single SC injection of MNTX (12 mg). The dosing was conducted in a crossover fashion (i.e., a tablet was administered at one visit and a SC injection was administered at the alternate visit).
Forty-eight subjects were enrolled and 47 subjects (97.9%) completed the study; one subject discontinued due to personal reasons after receiving study drug in both study periods. The subjects received study drug in accordance with the randomization schedule; specifically, 16 subjects each received a single oral dose of 150, 300, and 450 mg MNTX tablets and all 48 subjects received a single 12 mg SC injection of MNTX.

[1] = MNTX 12 mg SC Injection, single dose, mean
[2] = MNTX 150 mg Tablet vs 12 mg SC Injection
[3] = MNTX 150 mg Tablet, single oral dose, mean
[4] = MNTX 300 mg Tablet, single oral dose, mean
[5] = MNTX 450 mg Tablet, single oral dose, mean

For `C[N@+]1(CC2CC2)CC[C@]23c4c5ccc(O)c4O[C@H]2C(=O)CC[C@@]3(O)[C@H]1C5.[Br-]` [MNTX, (R)—N-(cyclopropylmethyl) noroxymorphone methobromide], which t1/2 (MNTX 12 mg SC Injection, single dose) is on record?
The t1/2 was 9.16 h.

And the “AUC0-∞” value [1]?
The value was 269.09 ng·h/mL.

And the CL/F [1]?
The CL/F was 45698.7 mL/h and 45698.71 mL/h.

And the Cmax [1]?
Its Cmax is 174.01 ng/mL.

And the “AUC0-t GMR, tablet/injection × 100” value [2]?
The value was 35.61%.

And the “AUC0-∞ GMR, tablet/injection × 100” value [2]?
The value was 36.41%.

What about the “Cmax GMR, tablet/injection × 100” value [2] of the same compound?
The value was 5.779%.

What about the t1/2 (MNTX 150 mg Tablet, single oral dose) of the same compound?
The t1/2 was 13.95 h.

What about the “AUC0-∞” value [3] of the same compound?
The value was 106.87 ng·h/mL.

And the CL/F [3]?
The CL/F was 1735472.22 mL/h.

What about the Cmax [3] of the same compound?
Its Cmax is 13.22 ng/mL.

What about the “AUC0-t GMR, tablet/injection × 100” value (MNTX 300 mg Tablet vs 12 mg SC Injection) of the same compound?
Its value is 74.73%.

And the t1/2 (MNTX 300 mg Tablet, single oral dose)?
The t1/2 was 14.16 h.

What about the “AUC0-∞” value [4] of the same compound?
The value was 231.24 ng·h/mL.

What about the CL/F [4] of the same compound?
Its CL/F is 1564638.99 mL/h.

What about the Cmax [4] of the same compound?
Its Cmax is 26.22 ng/mL.

And the “AUC0-t GMR, tablet/injection × 100” value (MNTX 450 mg Tablet vs 12 mg SC Injection)?
The value was 121.4%.

What about the t1/2 (MNTX 450 mg Tablet, single oral dose) of the same compound?
The t1/2 was 16.57 h.

What about the “AUC0-∞” value [5] of the same compound?
The value was 373.32 ng·h/mL.

What about the CL/F [5] of the same compound?
The CL/F was 1664001.3 mL/h and 1664001.28 mL/h.

What about the Cmax [5] of the same compound?
The Cmax was 39.89 ng/mL.

And the AUC(0-t) (human, plasma, oral, 150 mg, MNTX 150 mg Tablet, read-out: AUC0-t, Geometric LSM)?
Its AUC(0-t) is 94.2 ng·h/mL.

And the AUC(0-inf) (human, plasma, oral, 150 mg, MNTX 150 mg Tablet, read-out: AUC0-∞, Geometric LSM)?
Its AUC(0-inf) is 96.7 ng·h/mL.

And the Cmax (human, plasma, oral, 150 mg, MNTX 150 mg Tablet, read-out: Cmax, Geometric LSM)?
The Cmax was 9.47 ng/mL.

What about the AUC(0-t) (human, plasma, oral, 300 mg, MNTX 300 mg Tablet, read-out: AUC0-t, Geometric LSM) of the same compound?
The AUC(0-t) was 198 ng·h/mL.

What about the AUC(0-inf) (human, plasma, oral, 300 mg, MNTX 300 mg Tablet, read-out: AUC0-∞, Geometric LSM) of the same compound?
Its AUC(0-inf) is 200 ng·h/mL.

And the Cmax (human, plasma, oral, 300 mg, MNTX 300 mg Tablet, read-out: Cmax, Geometric LSM)?
The Cmax was 21.8 ng/mL.

And the AUC(0-t) (human, plasma, oral, 450 mg, MNTX 450 mg Tablet, read-out: AUC0-t, Geometric LSM)?
The AUC(0-t) was 321 ng·h/mL.

What about the AUC(0-inf) (human, plasma, oral, 450 mg, MNTX 450 mg Tablet, read-out: AUC0-∞, Geometric LSM) of the same compound?
Its AUC(0-inf) is 327 ng·h/mL.

And the Cmax (human, plasma, oral, 450 mg, MNTX 450 mg Tablet, read-out: Cmax, Geometric LSM)?
The Cmax was 32.7 ng/mL.

What about the half-life (human, plasma, po, 150 mg, MNTX 150 mg Tablet, single oral dose) of the same compound?
Its half-life is 14 h.

What about the AUC(0-t) (human, plasma, po, 150 mg, MNTX 150 mg Tablet, single oral dose, mean, read-out: AUC0-t) of the same compound?
Its AUC(0-t) is 105 ng·h/mL.

What about the AUC(0-inf) (human, plasma, po, 150 mg, MNTX 150 mg Tablet, single oral dose, mean, read-out: AUC0-∞) of the same compound?
Its AUC(0-inf) is 107 ng·h/mL.

And the Cmax (human, plasma, po, 150 mg, MNTX 150 mg Tablet, single oral dose, mean, read-out: Cmax)?
The Cmax was 13.2 ng/mL.

And the half-life (human, plasma, po, 300 mg, MNTX 300 mg Tablet, single oral dose)?
Its half-life is 14.2 h.

What about the AUC(0-t) (human, plasma, po, 300 mg, MNTX 300 mg Tablet, single oral dose, mean, read-out: AUC0-t) of the same compound?
The AUC(0-t) was 229 ng·h/mL.

And the AUC(0-inf) (human, plasma, po, 300 mg, MNTX 300 mg Tablet, single oral dose, mean, read-out: AUC0-∞)?
The AUC(0-inf) was 231 ng·h/mL.

And the Cmax (human, plasma, po, 300 mg, MNTX 300 mg Tablet, single oral dose, mean, read-out: Cmax)?
The Cmax was 26.2 ng/mL.

What about the half-life (human, plasma, po, 450 mg, MNTX 450 mg Tablet, single oral dose) of the same compound?
The half-life was 16.6 h.

And the AUC(0-t) (human, plasma, po, 450 mg, MNTX 450 mg Tablet, single oral dose, mean, read-out: AUC0-t)?
The AUC(0-t) was 367 ng·h/mL.

And the AUC(0-inf) (human, plasma, po, 450 mg, MNTX 450 mg Tablet, single oral dose, mean, read-out: AUC0-∞)?
Its AUC(0-inf) is 373 ng·h/mL.

What about the Cmax (human, plasma, po, 450 mg, MNTX 450 mg Tablet, single oral dose, mean, read-out: Cmax) of the same compound?
Its Cmax is 39.9 ng/mL.

What about the half-life (human, plasma, sc, 12 mg, MNTX 12 mg SC Injection, single dose) of the same compound?
Its half-life is 9.2 h.

What about the AUC(0-t) (human, plasma, sc, 12 mg, MNTX 12 mg SC Injection, single dose, mean, read-out: AUC0-t) of the same compound?
The AUC(0-t) was 268 ng·h/mL.

What about the AUC(0-inf) (human, plasma, sc, 12 mg, MNTX 12 mg SC Injection, single dose, mean, read-out: AUC0-∞) of the same compound?
Its AUC(0-inf) is 269 ng·h/mL.

And the Cmax (human, plasma, sc, 12 mg, MNTX 12 mg SC Injection, single dose, mean, read-out: Cmax)?
Its Cmax is 174 ng/mL.

And the AUC(0-t) (human, plasma, sc, 12 mg, MNTX 12 mg SC Injection, read-out: AUC0-t, Geometric LSM)?
The AUC(0-t) was 264 ng·h/mL.

And the AUC(0-inf) (human, plasma, sc, 12 mg, MNTX 12 mg SC Injection, read-out: AUC0-∞, Geometric LSM)?
Its AUC(0-inf) is 266 ng·h/mL.

And the Cmax (human, plasma, sc, 12 mg, MNTX 12 mg SC Injection, read-out: Cmax, Geometric LSM)?
Its Cmax is 164 ng/mL.

What about the Tmax (human, plasma, 12 mg SC injection, read-out: median Tmax (converted)) of the same compound?
The Tmax was 0.25 h.

What about the Tmax (human, plasma, MNTX 150 mg Tablet, single oral dose, median, read-out: Tmax) of the same compound?
Its Tmax is 2 h.

What about the Tmax (human, plasma, MNTX 300 mg Tablet, single oral dose, median, read-out: Tmax) of the same compound?
The Tmax was 1.5 h.

And the Tmax (human, plasma, MNTX 450 mg Tablet, single oral dose, median, read-out: Tmax)?
Its Tmax is 2 h.

And the bioavailability (human, plasma, oral 150 mg vs 12 mg SC)?
The bioavailability was 3.2%.

And the bioavailability (human, plasma, oral 300 mg vs 12 mg SC)?
Its bioavailability is 3.4%.

And the bioavailability (human, plasma, oral 450 mg vs 12 mg SC)?
Its bioavailability is 3.7%.

What about the Tmax (human, plasma, oral MNTX tablets 150 mg to 450 mg, read-out: median Tmax, range over the oral doses) of the same compound?
The Tmax was 1.5 to 2 h.

And the tolerability (oral 150, 300, 450 mg tablets and 12 mg SC injection, healthy volunteers)?
Its tolerability is “well tolerated”.

What about the “Tmax shorter following SC MNTX 12 mg versus oral MNTX 150, 300, and 450 mg” value (single doses) of the same compound?
Its value is 6- to 8 fold.

What about the “mean AUC0-∞ following SC MNTX 12 mg higher versus oral MNTX 300 mg” value (single doses) of the same compound?
Its value is 16%.

And the “mean AUC0-∞ following SC MNTX 12 mg lower versus oral MNTX 450 mg” value (single doses)?
Its value is 28%.

And the “t1/2 shorter following SC MNTX 12 mg versus oral MNTX 150, 300, and 450 mg” value (single doses)?
Its value is 5 to 7 h.
